pIC50: −log10 of the molar value. Where two headings read alike, the source gives them in different places. Values belong to the compound of their own block, whether it stands above or below them.
Key:
[1] = biological target: T1, ADP-glucose pyrophosphorylase enzyme from rice endosperm (Oryza sativa subsp. japonica, UniProt P15280+Q7G065); details: 5 mM 3-phosphoglycerate; cited from earlier work
T1 construct: host or cells: rice endosperm
T1 sequence (P15280 1-479 isoform P15280-2): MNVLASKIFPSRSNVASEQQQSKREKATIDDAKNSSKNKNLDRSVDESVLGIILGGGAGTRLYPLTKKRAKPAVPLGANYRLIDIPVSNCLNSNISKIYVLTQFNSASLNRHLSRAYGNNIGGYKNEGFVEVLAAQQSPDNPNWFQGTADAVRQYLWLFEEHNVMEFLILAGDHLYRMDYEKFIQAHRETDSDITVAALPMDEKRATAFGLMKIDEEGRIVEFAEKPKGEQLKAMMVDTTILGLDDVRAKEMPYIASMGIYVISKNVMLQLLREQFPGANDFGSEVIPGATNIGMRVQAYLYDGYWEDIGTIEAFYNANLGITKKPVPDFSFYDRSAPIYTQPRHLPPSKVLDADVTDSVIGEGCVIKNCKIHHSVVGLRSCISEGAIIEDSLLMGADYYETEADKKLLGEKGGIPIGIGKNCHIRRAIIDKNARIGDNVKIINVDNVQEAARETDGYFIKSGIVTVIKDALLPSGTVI
T1 sequence (Q7G065 1-518): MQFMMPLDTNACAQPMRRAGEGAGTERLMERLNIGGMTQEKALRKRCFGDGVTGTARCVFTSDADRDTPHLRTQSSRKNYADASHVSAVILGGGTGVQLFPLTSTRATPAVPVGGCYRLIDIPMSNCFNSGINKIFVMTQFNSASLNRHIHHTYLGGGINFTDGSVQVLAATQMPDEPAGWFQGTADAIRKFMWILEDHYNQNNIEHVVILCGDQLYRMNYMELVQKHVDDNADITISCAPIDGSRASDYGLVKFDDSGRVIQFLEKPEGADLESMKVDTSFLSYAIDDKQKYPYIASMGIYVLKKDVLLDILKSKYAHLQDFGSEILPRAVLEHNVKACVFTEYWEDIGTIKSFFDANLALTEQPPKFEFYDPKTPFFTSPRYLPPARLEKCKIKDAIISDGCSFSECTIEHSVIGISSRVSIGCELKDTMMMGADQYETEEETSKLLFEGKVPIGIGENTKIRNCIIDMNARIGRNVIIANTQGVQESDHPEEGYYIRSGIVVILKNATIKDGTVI

[2] = biological target: T2, wheat leaf ADP-glucose pyrophosphorylase (Triticum aestivum, UniProt P12298); assay: biochemical; details: read-out: fold activation of enzyme
T2 sequence (P12298 1-301): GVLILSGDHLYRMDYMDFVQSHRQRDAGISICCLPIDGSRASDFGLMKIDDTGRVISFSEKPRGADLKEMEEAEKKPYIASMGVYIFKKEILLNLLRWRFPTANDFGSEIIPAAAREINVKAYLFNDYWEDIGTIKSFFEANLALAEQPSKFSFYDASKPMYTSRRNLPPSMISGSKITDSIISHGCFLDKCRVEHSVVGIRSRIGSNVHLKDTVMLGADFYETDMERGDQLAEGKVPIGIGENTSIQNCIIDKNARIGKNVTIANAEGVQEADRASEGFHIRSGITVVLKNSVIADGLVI
T2 sequence (P30523 2-473 partner): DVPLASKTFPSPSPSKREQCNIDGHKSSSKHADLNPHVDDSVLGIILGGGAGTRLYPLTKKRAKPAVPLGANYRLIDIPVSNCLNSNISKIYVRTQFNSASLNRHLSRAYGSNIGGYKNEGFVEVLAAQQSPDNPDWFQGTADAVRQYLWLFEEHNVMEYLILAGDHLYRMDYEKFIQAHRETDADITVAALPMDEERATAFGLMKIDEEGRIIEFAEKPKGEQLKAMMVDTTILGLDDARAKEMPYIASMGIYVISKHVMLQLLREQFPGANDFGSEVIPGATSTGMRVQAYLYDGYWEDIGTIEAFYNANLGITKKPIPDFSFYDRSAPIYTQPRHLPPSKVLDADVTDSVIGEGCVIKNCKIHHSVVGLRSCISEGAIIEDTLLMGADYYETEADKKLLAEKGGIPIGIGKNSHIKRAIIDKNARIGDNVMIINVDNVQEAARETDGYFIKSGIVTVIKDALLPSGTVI

[3] = system: plant leaf ADP-glucose pyrophosphorylase; details: cited from earlier work; for activation in vitro: all plant leaf enzymes studied
[4] = biological target: T3, wheat endosperm ADP-glucose pyrophosphorylase (Triticum aestivum, UniProt P12299+P30523)
T3 sequence (P12299 63-522): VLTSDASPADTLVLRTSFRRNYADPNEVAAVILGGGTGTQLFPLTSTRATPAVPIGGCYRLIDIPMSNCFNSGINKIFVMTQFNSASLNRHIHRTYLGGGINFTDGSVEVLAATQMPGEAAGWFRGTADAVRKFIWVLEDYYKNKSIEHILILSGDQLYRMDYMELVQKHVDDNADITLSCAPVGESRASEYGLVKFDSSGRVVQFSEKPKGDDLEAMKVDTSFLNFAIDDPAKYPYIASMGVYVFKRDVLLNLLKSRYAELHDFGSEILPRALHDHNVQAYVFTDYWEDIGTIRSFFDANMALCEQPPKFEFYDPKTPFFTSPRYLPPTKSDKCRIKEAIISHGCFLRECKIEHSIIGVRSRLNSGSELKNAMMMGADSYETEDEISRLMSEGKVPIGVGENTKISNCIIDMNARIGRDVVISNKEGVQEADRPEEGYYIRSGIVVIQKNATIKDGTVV
T3 sequence (P30523 1-473): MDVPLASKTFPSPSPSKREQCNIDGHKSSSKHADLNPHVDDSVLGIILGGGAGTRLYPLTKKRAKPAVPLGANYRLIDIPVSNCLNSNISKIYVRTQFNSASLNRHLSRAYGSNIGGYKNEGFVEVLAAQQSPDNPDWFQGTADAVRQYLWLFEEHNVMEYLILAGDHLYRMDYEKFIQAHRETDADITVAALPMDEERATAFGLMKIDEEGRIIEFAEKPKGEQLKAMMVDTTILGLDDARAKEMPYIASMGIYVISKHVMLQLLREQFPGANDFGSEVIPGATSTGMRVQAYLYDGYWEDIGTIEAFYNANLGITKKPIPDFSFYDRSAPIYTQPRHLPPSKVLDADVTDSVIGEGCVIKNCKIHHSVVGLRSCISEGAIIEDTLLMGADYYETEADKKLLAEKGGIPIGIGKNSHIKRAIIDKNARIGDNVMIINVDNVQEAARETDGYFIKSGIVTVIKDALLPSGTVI

[5] = biological target: T3, wheat endosperm ADP-glucose pyrophosphorylase; assay: Screen of 3-phosphoglycerate analogues for antagonism of phosphate inhibition; type: biochemical; design: Partially-purified wheat endosperm ADP-glucose pyrophosphorylase; from tissue; host or cells: wheat endosperm; details: compound 3 mM, 1 mM phosphate
Method: There is clear evidence that the wheat endosperm enzyme has allosteric properties by virtue of being inhibited by phosphate and the inhibition being partially relieved by 3-phosphoglycerate. […] A careful analysis of various chemical that were chemically very closely related to 3-phosphoglycerate was carried out.
Seventeen compounds were tested at 3 mM concentration for their ability to antagonise the inhibition of the enzyme by 1 mM phosphate. The first series of compounds tested were phosphonate analogues of 3-phosphoglycerate. […] The second series tested were derivatives bearing structural similarity to 3-phosphoglycerate. Of these, only one compound gave weak alleviation of phosphate inhibition.

[6] = biological target: T2, wheat leaf ADP-glucose pyrophosphorylase; details: read-out: concentration required to achieve half-maximal inhibition of enzyme activity

- fold induction at 100 µM [2]: 14.5
- fold induction at 1000 µM [2]: 10
SMILES: O=C(O)C(O)COP(=O)(O)O (centres unmarked) [3-phosphoglycerate]
- fold activation in vitro [1]: 1,2 fold

- alleviation of phosphate inhibition ([4]; wheat endosperm enzyme): weakly alleviates phosphate inhibition
SMILES: O=C(CO)[C@@H](O)[C@H](O)[C@H](O)COP(=O)(O)O [Fructose-6-phosphate, fructose-6-phosphate]
- activation in vitro [3]: to a lesser extent

SMILES: O=S(=O)(O)O [Sulphate]
- antagonism of inhibition of the enzyme by phosphate [5]: antagonised phosphate inhibition

SMILES: O=C(COP(=O)(O)O)[C@@H](O)[C@H](O)[C@H](O)COP(=O)(O)O [fructose-1,6-bisphosphate]
- activation in vitro [3]: to a lesser extent
- activation of enzyme by fructose-1,6-bisphosphate ([4]; wheat endosperm enzyme): lack of detectable activation

SMILES: O=P(O)(O)O [orthophosphate]
- pIC50 [6]: 4.25
- pIC50 ([3]; enzymes from plant leaves, in vitro, read-out: orthophosphate concentration for half-maximal inhibition of enzyme activity): > 4.00
- pIC50 ([4]; read-out: I0.5 value for orthophosphate, in the presence of 1 mM 3-phosphoglycerate): 2.82
- pIC50 ([4]; read-out: concentration required to achieve half-maximal inhibition of enzyme activity, wheat endosperm enzyme): 3.15

SMILES: C=C(OP(=O)(O)O)C(=O)O [phosphoenol pyruvate]
- activation in vitro [3]: to a lesser extent

SMILES: O=C(O)CC(CP(=O)(O)O)C(=O)O (centres unmarked) [phosphonomethyl-butanedioic acid]
- antagonism of inhibition of the enzyme by phosphate [5]: weak antagonism of phosphate inhibition
